In one experiment the target is T1, Mer (Homo sapiens, UniProt Q12866).
T1 construct: host or cells: 293A cells (Thermo Fisher #R70507)
T1 sequence (Q12866 21-999): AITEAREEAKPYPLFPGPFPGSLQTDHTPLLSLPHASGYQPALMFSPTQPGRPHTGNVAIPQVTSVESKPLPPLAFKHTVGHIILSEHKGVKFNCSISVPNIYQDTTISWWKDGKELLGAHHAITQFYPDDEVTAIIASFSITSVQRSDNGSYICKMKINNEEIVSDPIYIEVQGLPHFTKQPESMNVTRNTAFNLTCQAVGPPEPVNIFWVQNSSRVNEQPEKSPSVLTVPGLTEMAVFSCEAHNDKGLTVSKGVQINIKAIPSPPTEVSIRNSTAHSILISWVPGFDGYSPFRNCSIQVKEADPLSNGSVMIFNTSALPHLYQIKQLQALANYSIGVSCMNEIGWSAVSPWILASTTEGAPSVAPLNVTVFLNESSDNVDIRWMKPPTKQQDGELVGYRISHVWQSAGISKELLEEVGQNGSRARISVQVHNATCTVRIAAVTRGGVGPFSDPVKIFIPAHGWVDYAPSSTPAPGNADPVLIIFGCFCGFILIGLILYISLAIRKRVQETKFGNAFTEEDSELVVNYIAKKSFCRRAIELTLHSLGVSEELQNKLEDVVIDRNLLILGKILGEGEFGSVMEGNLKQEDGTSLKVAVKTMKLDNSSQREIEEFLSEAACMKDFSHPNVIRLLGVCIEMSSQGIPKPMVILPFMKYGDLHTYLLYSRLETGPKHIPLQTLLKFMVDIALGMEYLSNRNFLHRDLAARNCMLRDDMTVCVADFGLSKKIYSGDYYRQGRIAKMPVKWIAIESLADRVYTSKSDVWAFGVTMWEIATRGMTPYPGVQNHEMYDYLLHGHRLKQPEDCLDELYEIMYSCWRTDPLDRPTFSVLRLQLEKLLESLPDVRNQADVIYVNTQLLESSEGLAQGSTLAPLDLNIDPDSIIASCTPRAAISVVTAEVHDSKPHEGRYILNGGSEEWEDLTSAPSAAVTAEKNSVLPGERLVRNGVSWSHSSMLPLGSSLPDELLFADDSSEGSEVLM
The experiment is described as follows: Mer autophosphorylation ELISA in transient transfected 293A cells. Conditions: cellular activity; MERTK-transfected 293A cells, phospho-Mer ELISA. Type of experiment: cell-based. How it is done: 293A cells (Thermo Fisher #R70507) were seeded at 1.5×10^6 cells/well onto 100 mm dish (Greiner #664169), in DMEM (Thermo Fisher #11995-040) containing 10% FBS (Thermo Fisher #26140-079), 1% MEM NEAA (Thermo Fisher #11140-050), 1% GlutaMax (Thermo Fisher #35050-061), and 1% Penicillin Streptomycin (Thermo Fisher #15140-122). 293A cells were incubated at 37° C., 5% CO2 for 24 h and then transfected with 6 μg MERTK DNA (Genecopoeia #EX-Z8208-M02) using TransIT LT1 transfection reagent (Mirus-Bio #MIR2305). After 24 h incubation, the transfected 293A cells were seeded at 1×10^5 cells/well onto 96-well plates (Corning #3904) in DMEM growth medium overnight. Test compounds were serially diluted to produce an 8-point dose curve in fresh serum-free medium to a final concentration of 0.3% DMSO (vehicle) and added to the cells and incubated for 1 h. Cells were then immediately lysed with 150 μL of cold 1× lysis buffer [20 mM Tris, 137 mM sodium chloride, 2 mM EDTA, 10% glycerol, 1% NP-40 alternative, 1 mM activated sodium orthovanadate, 1 mM PefaBloc SC (Sigma-Aldrich #11429868001), protease/phosphatase inhibitor tablet (Thermo Fisher #A32959)]. Lysates were clarified by centrifugation and 50 μL/well added into the human phospho-Mer DuoSet IC ELISA (R&D Systems #DYC2579-2). Assay was performed according to manufacturer's instructions and sample phospho-Mer concentrations were extrapolated using human phospho-Mer control (R&D Systems #841793) as a standard. Positive control wells (100% activity) contained DMSO-treated cell lysates. Negative control wells (0% activity) contained reference inhibitor-treated cell lysates. IC50 values were calculated by nonlinear regression analysis using a 4-parameter logistic curve fit in ActivityBase XE (IDBS).
In general terms: ELISA stands for enzyme-linked immunosorbent assay.

Another experiment deals with KDR (Homo sapiens, UniProt P35968). The experiment is described as follows: KDR autophosphorylation ELISA in HUVEC cells. Type of experiment: cell-based. Set-up: endogenous in cells; host or cells: HUVEC (Lonza #C2519A). The settings on record: cellular activity, VEGF165-stimulated, phospho-KDR ELISA. The procedure, abridged: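 Inhibition of VEGF165-induced KDR phosphorylation was determined in serum-starved HUVEC after 1 h compound pretreatment and 5 min stimulation with 100 ng/mL VEGF165. Lysate phospho-KDR was measured by ELISA; IC50 values came from a 4-parameter logistic fit of 8-point curves.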

The term pIC50 denotes −log10 of the IC50, conventionally taken in molar units. A lower pIC50 goes with a large IC50.

Structures are written as SMILES. pIC50: −log10 of the molar value.

Chain of KDR (P35968 20-1356): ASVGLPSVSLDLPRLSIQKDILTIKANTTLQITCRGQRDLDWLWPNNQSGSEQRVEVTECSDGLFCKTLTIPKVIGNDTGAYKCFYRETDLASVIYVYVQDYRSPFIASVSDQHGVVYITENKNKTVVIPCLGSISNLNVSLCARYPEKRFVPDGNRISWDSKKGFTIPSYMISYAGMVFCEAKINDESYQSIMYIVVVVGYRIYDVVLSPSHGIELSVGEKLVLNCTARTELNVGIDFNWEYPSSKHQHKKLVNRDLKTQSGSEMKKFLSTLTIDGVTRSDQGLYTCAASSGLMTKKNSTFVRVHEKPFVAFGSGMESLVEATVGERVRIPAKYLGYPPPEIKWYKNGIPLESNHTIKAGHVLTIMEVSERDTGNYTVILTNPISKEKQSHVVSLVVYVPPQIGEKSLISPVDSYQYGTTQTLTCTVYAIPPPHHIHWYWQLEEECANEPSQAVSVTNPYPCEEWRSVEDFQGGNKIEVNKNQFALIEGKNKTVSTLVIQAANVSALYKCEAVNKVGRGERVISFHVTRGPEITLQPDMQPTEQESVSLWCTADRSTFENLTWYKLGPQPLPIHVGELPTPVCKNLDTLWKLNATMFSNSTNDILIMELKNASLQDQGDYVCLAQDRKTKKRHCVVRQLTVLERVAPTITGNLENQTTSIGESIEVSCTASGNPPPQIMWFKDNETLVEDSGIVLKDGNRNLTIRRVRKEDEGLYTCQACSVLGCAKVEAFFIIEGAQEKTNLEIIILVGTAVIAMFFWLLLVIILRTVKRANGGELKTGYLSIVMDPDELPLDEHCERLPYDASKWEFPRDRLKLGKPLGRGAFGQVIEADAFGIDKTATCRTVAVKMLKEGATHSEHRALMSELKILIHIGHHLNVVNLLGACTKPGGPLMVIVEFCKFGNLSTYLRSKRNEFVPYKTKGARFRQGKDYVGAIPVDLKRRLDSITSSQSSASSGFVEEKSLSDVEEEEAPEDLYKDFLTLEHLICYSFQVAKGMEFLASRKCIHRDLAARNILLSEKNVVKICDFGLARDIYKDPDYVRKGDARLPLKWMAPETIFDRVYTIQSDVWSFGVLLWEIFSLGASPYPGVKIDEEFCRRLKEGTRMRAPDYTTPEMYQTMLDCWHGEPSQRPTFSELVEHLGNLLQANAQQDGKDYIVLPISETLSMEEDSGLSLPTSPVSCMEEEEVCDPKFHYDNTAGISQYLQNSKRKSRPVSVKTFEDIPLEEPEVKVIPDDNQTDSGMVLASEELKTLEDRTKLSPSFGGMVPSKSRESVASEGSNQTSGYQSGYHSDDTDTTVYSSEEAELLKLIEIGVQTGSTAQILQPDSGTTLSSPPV

Consider `O=C(Nc1ccc(F)cc1)C1(C(=O)Nc2ccc(Oc3ccnc4cc(-c5ccc(F)nc5)ccc34)cc2)CC1` [Compound 41, 1-N′-(4-Fluorophenyl)-1-N-[4-[7-(6-fluoropyridin-3-yl)quinolin-4-yl]oxyphenyl]cyclopropane-1,1-dicarboxamide], for which the negative logarithm of the IC50 (pIC50) against Mer and against KDR was 7.00 to 8.00 throughout.
Take `Cc1cc2c(Oc3ccc(NC(=O)C4(C(=O)Nc5ccc(F)cc5)CC4)cc3F)ccnc2cc1-c1ncc[nH]1` [Compound 122, 1-N′-[3-Fluoro-4-[7-(1H-imidazol-2-yl)-6-methylquinolin-4-yl]oxyphenyl]-1-N-(4-fluorophenyl)cyclopropane-1,1-dicarboxamide]: the negative logarithm of the IC50 (pIC50) against Mer and on KDR was 7.00 to 8.00 each time.
Take `O=C(Nc1ccc(F)cc1)C1(C(=O)Nc2ccc(Oc3ccnc4cc(-c5cncs5)ccc34)cc2)CC1` [Compound 116, 1-N′-(4-Fluorophenyl)-1-N-[4-[7-(1,3-thiazol-5-yl)quinolin-4-yl]oxyphenyl]cyclopropane-1,1-dicarboxamide]: the pIC50 was 7.00 to 8.00 against Mer and at least 8.00 at KDR.
On the same counts, the results for `O=C(Nc1ccc(F)cc1)C1(C(=O)Nc2ccc(Oc3ccnc4cc(-c5ccn[nH]5)ccc34)cc2)CC1` [Compound 68, 1-N′-(4-Fluorophenyl)-1-N-[4-[7-(1H-pyrazol-5-yl)quinolin-4-yl]oxyphenyl]cyclopropane-1,1-dicarboxamide] are 7.00 to 8.00 and at least 8.00.
In the case of `CC1Cc2cc(F)ccc2N1C(=O)C1(C(=O)Nc2ccc(Oc3ccnc4cc(-c5cnn(C)c5)ccc34)cc2)CC1` (stereo not drawn) [Compound 80, 1-(5-Fluoro-2-methyl-2,3-dihydroindole-1-carbonyl)-N-[4-[7-(1-methylpyrazol-4-yl)quinolin-4-yl]oxyphenyl]cyclopropane-1-carboxamide], the negative logarithm of the IC50 (pIC50) against Mer and on KDR was below 6.52 throughout.
Take `O=C(Nc1ccc(F)cc1)C1(C(=O)Nc2ccc(Oc3ccnc4cc(-c5cncnc5)ccc34)cc2)CC1` [Compound 27, 1-N′-(4-Fluorophenyl)-1-N-[4-(7-pyrimidin-5-ylquinolin-4-yl)oxyphenyl]cyclopropane-1,1-dicarboxamide]: the pIC50 at Mer and on KDR was 7.00 to 8.00 each time.
Take `O=C(Nc1ccc(F)cc1)C1(C(=O)Nc2ccc(Oc3ccnc4cc(-c5cccnc5)ccc34)c(F)c2)CC1` [Compound 113, 1-N-(4-Fluorophenyl)-1-N′-[3-fluoro-4-(7-pyridin-3-ylquinolin-4-yl)oxyphenyl]cyclopropane-1,1-dicarboxamide]: the pIC50 was 7.00 to 8.00 on Mer and at least 8.00 against KDR.
In the same order, the values of `O=C(Nc1ccc(F)cc1)C1(C(=O)Nc2ccc(Oc3ccnc4cc(-c5cnn(C6CC6)c5)ccc34)cc2)CC1` [Compound 22, 1-N-[4-[7-(1-Cyclopropylpyrazol-4-yl)quinolin-4-yl]oxyphenyl]-1-N′-(4-fluorophenyl)cyclopropane-1,1-dicarboxamide] are at least 8.00 and 7.00 to 8.00.
With `Nc1ccc(-c2ccc3c(Oc4ccc(NC(=O)C5(C(=O)Nc6ccc(F)cc6)CC5)cc4)ccnc3c2)cn1` [Compound 38, 1-N-[4-[7-(6-Aminopyridin-3-yl)quinolin-4-yl]oxyphenyl]-1-N′-(4-fluorophenyl)cyclopropane-1,1-dicarboxamide], the pIC50 against Mer and at KDR was 7.00 to 8.00 in each case.
Take `COc1cncc(-c2ccc3c(Oc4ccc(NC(=O)C5(C(=O)Nc6ccc(F)cc6)CC5)cc4)ccnc3c2)c1` [Compound 47, 1-N′-(4-Fluorophenyl)-1-N-[4-[7-(5-methoxypyridin-3-yl)quinolin-4-yl]oxyphenyl]cyclopropane-1,1-dicarboxamide]: the pIC50 against Mer is 7.00 to 8.00; against KDR, 6.52 to 7.00.
In the same order, the values of `O=C(Nc1ccc(F)cc1)C1(C(=O)Nc2ccc(Oc3ccnc4cc(-c5cnn(CCN6CCOCC6)c5)ccc34)cc2)CC1` [Compound 19, 1-N′-(4-Fluorophenyl)-1-N-[4-[7-[1-(2-morpholin-4-ylethyl)pyrazol-4-yl]quinolin-4-yl]oxyphenyl]cyclopropane-1,1-dicarboxamide] are at least 8.00 and 7.00 to 8.00.
On the same counts, the results for `Cc1cc2c(Oc3c(F)cc(NC(=O)C4(C(=O)Nc5ccc(F)cc5)CC4)c(F)c3F)ccnc2cc1-c1cnn(C)c1` [Compound 110, 1-N-(4-Fluorophenyl)-1-N′-[2,3,5-trifluoro-4-[6-methyl-7-(1-methylpyrazol-4-yl)quinolin-4-yl]oxyphenyl]cyclopropane-1,1-dicarboxamide] are 7.00 to 8.00 and 6.52 to 7.00.
On the same counts, the results for `O=C(Nc1ccc(F)cc1)C1(C(=O)Nc2ccc(Oc3ccnc4cc(-c5cnn(CCO)c5)ccc34)cc2)CC1` [Compound 18, 1-N′-(4-Fluorophenyl)-1-N-[4-[7-[1-(2-hydroxyethyl)pyrazol-4-yl]quinolin-4-yl]oxyphenyl]cyclopropane-1,1-dicarboxamide] are at least 8.00 and at least 8.00.
For `O=C(Nc1ccc(F)cc1)C1(C(=O)Nc2ccc(Oc3ccnc4cc(-c5cccnc5)ccc34)cc2)CC1` [Compound 25, 1-N′-(4-Fluorophenyl)-1-N-[4-(7-pyridin-3-ylquinolin-4-yl)oxyphenyl]cyclopropane-1,1-dicarboxamide], the negative-log IC50 (pIC50) is 7.00 to 8.00 against Mer and at least 8.00 on KDR.
`O=C(Nc1ccc(F)cc1)C1(C(=O)Nc2ccc(Oc3ccnc4cc(-c5ccnnc5)ccc34)cc2)CC1` [Compound 28, 1-N′-(4-Fluorophenyl)-1-N-[4-(7-pyridazin-4-ylquinolin-4-yl)oxyphenyl]cyclopropane-1,1-dicarboxamide]: the negative logarithm of the IC50 (pIC50) at Mer and against KDR was 7.00 to 8.00 each time.
For the molecule `O=C(Nc1ccc(F)cc1)C1(C(=O)Nc2cc(F)c(Oc3ccnc4cc(-c5cnn(C(F)F)c5)ccc34)cc2F)CC1` [Compound 118, 1-N′-[4-[7-[1-(Difluoromethyl)pyrazol-4-yl]quinolin-4-yl]oxy-2,5-difluorophenyl]-1-N-(4-fluorophenyl)cyclopropane-1,1-dicarboxamide], the negative logarithm of the IC50 (pIC50) at Mer and against KDR was 7.00 to 8.00 in each case.
Turning to `O=C(Nc1ccc(F)cc1)C1(C(=O)Nc2ccc(Oc3ccnc4cc(-c5cnoc5)ccc34)cc2)CC1` [Compound 57, 1-N′-(4-Fluorophenyl)-1-N-[4-[7-(1,2-oxazol-4-yl)quinolin-4-yl]oxyphenyl]cyclopropane-1,1-dicarboxamide], the negative logarithm of the IC50 (pIC50) at Mer and at KDR was 7.00 to 8.00 throughout.
Turning to `Cc1cncc(-c2ccc3c(Oc4ccc(NC(=O)C5(C(=O)Nc6ccc(F)cc6)CC5)cc4)ccnc3c2)c1` [Compound 46, 1-N′-(4-Fluorophenyl)-1-N-[4-[7-(5-methylpyridin-3-yl)quinolin-4-yl]oxyphenyl]cyclopropane-1,1-dicarboxamide], the figures for the negative-log IC50 (pIC50) on Mer and on KDR were 6.52 to 7.00 and 7.00 to 8.00, respectively.

The values above are taken from patent publication US12503438B2, “Compounds for the treatment of kinase-dependent disorders” (Exelixis, Inc., priority 2019, dated 2025).
